Reference: patent US12495798B2, “Nicotinamide compound and herbicidal composition comprising compound” (KOREA RESEARCH INSTITUTE OF CHEMICAL TECHNOLOGY, priority 2019, dated 2025)

What was measured:
Type in all cases: in vivo
crabgrass = assay: Herbicidal activity test against upland field weeds (foliar treatment test); parameters: key to Foliar treatment herbicidal activity, Crabgrass: 0 (no control); 100 (complete control); details: 50 g ai/ha, scale 0-100; for pest or weed control at 50 g/ha: Digitaria sanguinalis
Summary of the method: (§1)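 Greenhouse-grown plants (30±5 °C, 14/10 h light/dark) foliar hand-sprayed with compound in 50% acetone, 0.1% Tween-20 at 50 or 75 g a.i./ha. Control visually scored 0 (none) to 100 (complete) versus untreated after 14 days, or 21 days if needed.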

barnyard grass = assay: as above; details: 50 g ai/ha, scale 0-100; for pest or weed control at 50 g/ha: Echinochloa crus-galli
Summary of the method: as §1

indian jointvetch = assay: as above; details: 50 g ai/ha, scale 0-100
Summary of the method: as §1

black nightshade = assay: as above; parameters: key to Foliar treatment herbicidal activity, black nightshade: 0 (no control); 100 (complete control); details: 50 g ai/ha, scale 0-100
Summary of the method: as §1

bindweed = assay: as above; parameters: key to Foliar treatment herbicidal activity, Bindweed: 0 (no control); 100 (complete control); details: 50 g ai/ha, scale 0-100
Summary of the method: as §1

fall panicum [1] = assay: as above; details: 50 g ai/ha, scale 0-100; for pest or weed control at 50 g/ha: Panicum dichotomiflorum
Summary of the method: as §1

sorghum = assay: Herbicidal activity test against upland field weeds (soil treatment test); details: 50 g ai/ha, scale 0 (no control) to 100 (complete control)
Summary of the method: (§2)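 Pre-emergence soil surface spray, day after sowing, into sandy loam pots with fertilizer; compounds at 50 or 75 g a.i./ha in 50% acetone, 0.1% Tween-20. Greenhouse at 30±5 °C, 14/10 h light/dark; visual control rated 0–100 against untreated after 14 days (21 if needed).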

fall panicum [2] = assay: as above; parameters: key to Soil treatment herbicidal activity, Fall panicum: 0 (no control); 100 (complete control); details: 50 g ai/ha, scale 0 (no control) to 100 (complete control)
Summary of the method: as §2

cotton = assay: Phytotoxicity test for field crops (soil treatment test); parameters: key: 0 (no harm); 9 (complete withered)
Procedure: (§3) Experimental Example 4: Phytotoxicity Test for Field Crops (Soil Treatment Test)
(§4) Soil treatment was performed for sown crops and weeds in a square plastic pot having a surface area of 50 cm^2 filled with sterilized horticultural soil (pH 6.1, organic material 1.0%, clay 21%, silt 17%, sand 52%). As a fertilizer per pot, 0.5 g of horticultural mixed fertilizer (N:P:K=17:21:17) was treated by mixing with soil. Five kinds of crops such as rice, wheat, corn, soybean, and cotton were sown in each pot. One day after sowing, test compound solutions were made by diluting with the diluent (33% acetone, 0.1% Tween-20) so that the final treatment amount of the test compounds was 19˜300 g a.i./ha. The prepared test compound solutions were treated using a spray booth (SB6-016) at a treatment amount of 100 ml per 1 m^2 of treatment area. The treated crops were managed in greenhouse conditions (average temperature 30±5° C., light/dark=14/10 hours). External symptoms and phytotoxicity were visually investigated 10 and 20 days after treatment. In the evaluation of the phytotoxicity for the crop, the grade of 0 (no harm) to 9 (complete withered) was used. The results of Table 10 were obtained by evaluating phytotoxicity value to the untreated control.

soybean = assay: as above; parameters: key: 0 (no harm); 9 (complete withered)
Procedure: as §3, §4

rice = assay: as above; parameters: key: 0 (no harm); 9 (complete withered)
Procedure: as §3, §4

wheat = assay: as above; parameters: key: 0 (no harm); 9 (complete withered)
Procedure: as §3, §4

corn = assay: as above; parameters: key: 0 (no harm); 9 (complete withered)
Procedure: as §3, §4

[3] = 50 g ai/ha, Cotton (10 days after treatment)
[4] = 50 g ai/ha, Cotton (20 days after treatment)
[5] = 100 g ai/ha, Cotton (10 days after treatment)
[6] = 100 g ai/ha, Cotton (20 days after treatment)
[7] = 50 g ai/ha, Soybean (20 days after treatment)
[8] = 100 g ai/ha, Soybean (20 days after treatment)
[9] = 50 g ai/ha, Rice (10 days after treatment)
[10] = 50 g ai/ha, Rice (20 days after treatment)
[11] = 100 g ai/ha, Rice (10 days after treatment)
[12] = 100 g ai/ha, Rice (20 days after treatment)
[13] = 50 g ai/ha, Wheat (10 days after treatment)
[14] = 50 g ai/ha, Wheat (20 days after treatment)
[15] = 100 g ai/ha, Wheat (10 days after treatment)
[16] = 100 g ai/ha, Wheat (20 days after treatment)
[17] = 50 g ai/ha, Corn (10 days after treatment)
[18] = 50 g ai/ha, Corn (20 days after treatment)
[19] = 100 g ai/ha, Corn (10 days after treatment)
[20] = 100 g ai/ha, Corn (20 days after treatment)
[21] = 50 g ai/ha, Soybean (10 days after treatment)

| Structure (SMILES) | pest or weed control at 50 g/ha (barnyard grass) [%] | pest or weed control at 50 g/ha (indian jointvetch) [%] | Foliar treatment herbicidal activity, black nightshade (black nightshade) | pest or weed control at 50 g/ha (fall panicum [1]) [%] | Soil treatment phytotoxicity, Cotton (cotton; [3]) | Soil treatment phytotoxicity, Cotton (cotton; [4]) | Soil treatment phytotoxicity, Cotton (cotton; [5]) | Soil treatment phytotoxicity, Cotton (cotton; [6]) | Soil treatment phytotoxicity, Soybean (soybean; [7]) | Soil treatment phytotoxicity, Rice (rice; [9]) | Soil treatment phytotoxicity, Rice (rice; [10]) | Soil treatment phytotoxicity, Rice (rice; [11]) | Soil treatment phytotoxicity, Rice (rice; [12]) | Soil treatment phytotoxicity, Wheat (wheat; [13]) | Soil treatment phytotoxicity, Wheat (wheat; [14]) | Soil treatment phytotoxicity, Wheat (wheat; [15]) | Soil treatment phytotoxicity, Wheat (wheat; [16]) | Soil treatment phytotoxicity, Corn (corn; [17]) | Soil treatment phytotoxicity, Corn (corn; [18]) | Soil treatment phytotoxicity, Corn (corn; [19]) | further results |
| --- | --- | --- | --- | --- | --- | --- | --- | --- | --- | --- | --- | --- | --- | --- | --- | --- | --- | --- | --- | --- | --- |
| Cn1nnc(CSCc2nc(C(F)(F)F)ccc2C(=O)Nc2nnnn2C)n1 [Compound No. 2-102, N-(1-methyl-1H-tetrazol-5-yl)-2-((((2-methyl-2H-tetrazol-5-yl)methyl)thio)methyl)-6-(trifluoromethyl)nicotinamide] | 95 | 98 | 100 | 80 | – | – | – | – | – | – | – | – | – | – | – | – | – | – | – | – | Foliar treatment herbicidal activity, Crabgrass (crabgrass): 100; Foliar treatment herbicidal activity, Bindweed (bindweed): 100; plant injury at 50 g/ha (sorghum; Sorghum): 20%; Soil treatment herbicidal activity, Fall panicum (fall panicum [2]): 100 |
| CCOC(=O)OC(C)n1nnn(C)c1=NC(=O)c1ccc(C(F)(F)F)nc1CSCc1nnn(C)n1 (stereo not drawn) [Compound No. 4-10, ethyl (1-(4-methyl-5-((2-((((2-methyl-2H-tetrazol-5-yl)methyl)thio)methyl)-6-(trifluoromethyl)nicotinoyl)imino)-4,5-dihydro-1H-tetrazol-1-yl)ethyl)carbonate] | – | – | 100 | – | 0 | 1 | 0 | 2 | 1 | 0 | 0 | 0 | 0 | 0 | 0 | 0 | 0 | 0 | 0 | 0 | Foliar treatment herbicidal activity, Crabgrass (crabgrass): 100; Foliar treatment herbicidal activity, barnyard grass (barnyard grass): 98; Foliar treatment herbicidal activity, Indian jointvetch (indian jointvetch): 98; Foliar treatment herbicidal activity, Bindweed (bindweed): 100; Foliar treatment herbicidal activity, Fall panicum (fall panicum [1]): 95; Soil treatment phytotoxicity, Soybean (soybean; [8]): 3; Soil treatment phytotoxicity, Corn (corn; [20]): 0; Soil treatment herbicidal activity, Sorghum (sorghum): 40; Soil treatment herbicidal activity, Fall panicum (fall panicum [2]): 40 |
| Cn1nc(COCc2nc(C(F)(F)F)ccc2C(=O)Nc2nnnn2C)nc1Br [Compound No. 2-136, 2-(((5-bromo-1-methyl-1H-1,2,4-triazol-3-yl)methoxy)methyl)-N-(1-methyl-1H-tetrazol-5-yl)-6-(trifluoromethyl)nicotinamide] | 70 | 20 | – | 50 | 0 | 0 | 1 | 0 | 0 | 3 | 4 | 4 | 7 | 0 | 0 | 0 | 0 | 0 | 0 | 0 | pest or weed control at 50 g/ha (crabgrass): 60%; pest or weed control at 50 g/ha (black nightshade; Solanum nigrum): 95%; pest or weed control at 50 g/ha (bindweed): 50%; Soil treatment phytotoxicity, Soybean (soybean; [21]): 0; Soil treatment phytotoxicity, Corn (corn; [20]): 0 |
| Cn1nc(COCc2nc(C(F)(F)F)ccc2C(=O)Nc2nnnn2C)nc1C#N [Compound No. 2-134, 2-(((5-cyano-1-methyl-1H-1,2,4-triazol-3-yl)methoxy)methyl)-N-(1-methyl-1H-tetrazol-5-yl)-6-(trifluoromethyl)nicotinamide] | 98 | 70 | 100 | 50 | 0 | 1 | 0 | 2 | 0 | 1 | 1 | 5 | 4 | 0 | 0 | 0 | 0 | 0 | 0 | 0 | pest or weed control at 50 g/ha (crabgrass): 80%; pest or weed control at 50 g/ha (bindweed): 98%; Soil treatment phytotoxicity, Soybean (soybean; [21]): 0; Soil treatment phytotoxicity, Soybean (soybean; 100 g ai/ha, Soybean (10 days after treatment)): 0; Soil treatment phytotoxicity, Soybean (soybean; [8]): 0; Soil treatment phytotoxicity, Corn (corn; [20]): 0 |
